# Source: patent US8952024B2, “Herbicidal pyrimidone derivatives” (E I du Pont de Nemours and Company, priority 2009, dated 2015)
# Legend:
# Experiment in all cases: Test C plant response
# Assay type in all cases: in vivo
# Conditions in all cases: Preemergence, scale 0 to 100
# [1] = system: windgrass (Apera spica-venti)
# [2] = system: canarygrass (Phalaris minor)
# [3] = system: wild radish (Raphanus raphanistrum)
smiles,measurement,setting,value
"O=C1CCCC(O)=C1C(=O)c1cnc(-c2ccccc2)n(-c2ccccc2)c1=O [Compound 2, 5-[(2-hydroxy-6-oxo-1-cyclohexen-1-yl)carbonyl]-2,3-diphenyl-4(3H)-pyrimidinone]",Plant response rating: Windgrass,[1]; 62 g ai/ha,25
same,Plant response rating: Windgrass,[1]; 125 g ai/ha,25
same,Plant response rating: Windgrass,[1]; 16 g ai/ha,0
same,Plant response rating: Windgrass,[1]; 31 g ai/ha,15
same,Plant response rating: Canarygrass,[2]; 62 g ai/ha,0
same,Plant response rating: Canarygrass,[2]; 125 g ai/ha,10
same,Plant response rating: Canarygrass,[2]; 16 g ai/ha,0
same,Plant response rating: Canarygrass,[2]; 31 g ai/ha,0
same,"Plant response rating: Radish, Wild",[3]; 62 g ai/ha,0
same,"Plant response rating: Radish, Wild",[3]; 125 g ai/ha,0
same,"Plant response rating: Radish, Wild",[3]; 16 g ai/ha,0
same,"Plant response rating: Radish, Wild",[3]; 31 g ai/ha,0
